Test results published in US20260364215A1, “Radiopharmaceutical Compositions Targeting Ephrin Type-A Receptor 2 and Uses Thereof” (PeptiDream Inc., priority 2022, published 2026).
Numbered stars: 1 amine (or outer) side, 2 acyl side, 3 side chain; on linkers, the order of the positions; unused ones are H or OH. Bridge positions count the residues as written; N and C are the ends. Square brackets hold non-standard residues; d marks the D form. Side chains are listed from the residue outwards. Peptide text beside a SMILES is read from it. * marks the point of attachment. DOTA(Lu) = O=C1CN2CCN3CCN(CC(=O)*)CCN(CC2)CC(=O)[O][Lu]([O]1)[O]C(=O)C3; NH(1-deoxy-D-glucityl) = OC[C@@H](O)[C@@H](O)[C@H](O)[C@@H](O)CN*; DOTA = O=C(O)CN1CCN(CC(=O)O)CCN(CC(=O)*)CCN(CC(=O)O)CC1; Trp(1-Me,7-Cl) = Cn1cc(C[C@H](N)C(=O)O)c2cccc(Cl)c21; dPhe(3-CONH2) = NC(=O)c1cccc(C[C@@H](N)C(=O)O)c1; Piperazinyl(4-CH2COOH) = O=C(O)CN1CCN(*)CC1; Trp(1-Me) = Cn1cc(C[C@H](N)C(=O)O)c2ccccc21; PEG8 = NCCOCCOCCOCCOCCOCCOCCOCCOCCC(=O)O; NMe3Pal = CN[C@@H](Cc1cccnc1)C(=O)O; NMeF = CN[C@@H](Cc1ccccc1)C(=O)O; hCit = NC(=O)NCCCC[C@H](N)C(=O)O; Gly(cBu) = N[C@H](C(=O)O)C1CCC1; NMeE = CN[C@@H](CCC(=O)O)C(=O)O; Aad = N[C@@H](CCCC(=O)O)C(=O)O; NMeN = CN[C@@H](CC(N)=O)C(=O)O; PEG2 = NCCOCCOCCC(=O)O; CO = O=C([*:1])[*:2]; βAla = NCCC(=O)O

target: T1, Recombinant Human EphA2 Fc Protein (Homo sapiens, UniProt P29317); assay: Interaction analysis (kinetics, KD) of peptides and conjugates against EphA2 by SPR, Biacore T200, single-cycle kinetics (Examples B15 and B22); type: binding; settings: not given
T1 construct: purchased Elabscience
Protocol: Example B15. Interaction Analysis by SPR was Performed Using Biacore (Cytiva)
SPR assay was performed using Biacore T200 (Cytiva).
The HBS-P+ buffer (10 mM HEPES (pH7.4), 150 mM NaCl, 0.05% (v/v) Surfactant P20) containing 1% DMSO was used as running buffer. Recombinant Human EphA2 Fc Protein (Fc tag, Elabscience) was captured by Human Antibody Capture kit (Cytiva). Peptide samples in DMSO were diluted with running buffer, and prepared five serial dilutions. Using these serial dilutions, kinetics of peptides against EphA2 was measured at a flow rate of […] at 25 °C. The method adopted for sample measurement was a single-cycle kinetics method. The analysis was conducted using the evaluation software 3.0 provided with Biacore T200. Kinetics fitting was done on the difference data obtained by subtracting the baseline data from sample measurement data. KD values were calculated based on the association rate constant (ka) and dissociation rate constant (kd).
Example B22: Interaction Analysis of Conjugates by SPR was Performed Using Biacore (Cytiva)
SPR assay was performed using Biacore T200 (Cytiva) according to Example B15.

T1 sequence (P29317 24-534 limits assumed): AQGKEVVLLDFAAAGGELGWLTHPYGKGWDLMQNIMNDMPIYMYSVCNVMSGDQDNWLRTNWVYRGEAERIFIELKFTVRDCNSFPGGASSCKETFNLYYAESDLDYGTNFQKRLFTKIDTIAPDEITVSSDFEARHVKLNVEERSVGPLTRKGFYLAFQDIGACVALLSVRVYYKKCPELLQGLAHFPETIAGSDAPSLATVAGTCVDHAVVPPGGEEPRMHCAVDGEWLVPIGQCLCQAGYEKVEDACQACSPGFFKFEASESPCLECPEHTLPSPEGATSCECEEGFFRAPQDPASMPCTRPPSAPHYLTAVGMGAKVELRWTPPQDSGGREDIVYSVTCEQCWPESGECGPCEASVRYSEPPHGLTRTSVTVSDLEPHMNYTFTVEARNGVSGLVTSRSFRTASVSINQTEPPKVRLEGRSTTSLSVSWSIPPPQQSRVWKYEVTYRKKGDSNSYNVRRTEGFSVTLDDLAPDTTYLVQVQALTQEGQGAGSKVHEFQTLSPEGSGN

Structure (SMILES) | Kd [nM]
CC(C)C[C@@H]1NC(=O)[C@H](CC(N)=O)NC(=O)[C@H](Cc2cccnc2)N(C)C(=O)[C@@H](C)NC(=O)CSC[C@@H](C(=O)N[C@H](CCCCNC(=O)CN(C)C(=O)CN(C)C(=O)CN(C)C(=O)CN(C)C(=O)CN(C)C(=O)CN(C)C(=O)CN(C)C(=O)CN(C)C(=O)CN(C)C(=O)CN(C)C(=O)CCNC(=O)CN2CCN3CCN4CCN(CC2)CC(=O)[O][Lu]([O]C(=O)C3)[O]C(=O)C4)C(N)=O)NC(=O)[C@H](CCCC(N)=O)NC(=O)[C@H]([C@@H](C)O)NC(=O)[C@H](Cc2cn(C)c3ccccc23)NC(=O)[C@H](CCCCNC(=O)N2CCN(CC(=O)O)CC2)NC(=O)[C@H](Cc2cn(C)c3ccccc23)NC(=O)C(CCC(=O)O)N(C)C(=O)[C@H](CCCC(N)=O)NC1=O (some centres unmarked) [PDC_EphA2-00007196-C310] | < 1
C[C@H]1NC(=O)CSC[C@@H](C(=O)N[C@H](CCCCNC(=O)CN2CCN3CCN4CCN(CC2)CC(=O)[O][Lu]([O]C(=O)C3)[O]C(=O)C4)C(N)=O)NC(=O)[C@H](CCCC(N)=O)NC(=O)[C@H]([C@@H](C)O)NC(=O)[C@H](Cc2cn(C)c3ccccc23)NC(=O)[C@H](CCC(=O)NC[C@H](O)[C@@H](O)[C@H](O)[C@H](O)CO)NC(=O)[C@H](Cc2cn(C)c3ccccc23)NC(=O)[C@H](Cc2cccnc2)N(C)C(=O)[C@H](CCCC(N)=O)NC(=O)[C@H](C2CCC2)NC(=O)[C@H](CC(N)=O)NC(=O)[C@H](Cc2ccccc2)N(C)C1=O [PDC_EphA2-00013704-C302] ({CH2CO}-[dA][NMeF]N[Gly(cBu)][Aad](NH2)[NMe3Pal][Trp(1-Me)]E(NH(1-deoxy-D-glucityl))[Trp(1-Me)]T[Aad](NH2)C[dK](DOTA(Lu))-NH2; thioether N-12) | < 1
C[C@H]1NC(=O)CSC[C@@H](C(=O)N[C@H](CCCCNC(=O)CN2CCN3CCN4CCN(CC2)CC(=O)[O][Lu]([O]C(=O)C3)[O]C(=O)C4)C(N)=O)NC(=O)[C@H](CCCC(N)=O)NC(=O)[C@H]([C@@H](C)O)NC(=O)[C@H](Cc2cn(C)c3ccccc23)NC(=O)[C@H](CCC(=O)NC[C@H](O)[C@@H](O)[C@H](O)[C@H](O)CO)NC(=O)[C@H](Cc2cn(C)c3ccccc23)NC(=O)[C@H](Cc2cccnc2)N(C)C(=O)[C@H](CCCC(N)=O)NC(=O)[C@H](C2CCC2)NC(=O)[C@H](CC(N)=O)NC(=O)[C@H](Cc2cccnc2)N(C)C1=O [PDC_EphA2-00013705-C302] ({CH2CO}-[dA][NMe3Pal]N[Gly(cBu)][Aad](NH2)[NMe3Pal][Trp(1-Me)]E(NH(1-deoxy-D-glucityl))[Trp(1-Me)]T[Aad](NH2)C[dK](DOTA(Lu))-NH2; thioether N-12) | < 1

same assay, conditions: conjugates, Biacore T200 according to Example B15, Table B16; read-out: SPR Kd

Structure (SMILES) | Kd [nM]
CC(C)C[C@@H]1NC(=O)[C@H](CC(N)=O)NC(=O)[C@H](Cc2ccccc2)N(C)C(=O)[C@@H](C)NC(=O)CSC[C@@H](C(=O)NCCC(=O)N[C@H](CCCCNC(=O)CCOCCOCCNC(=O)CCOCCOCCOCCOCCOCCOCCOCCOCCNC(=O)CN2CCN(CC(=O)O)CCN(CC(=O)O)CCN(CC(=O)O)CC2)C(N)=O)NC(=O)[C@H](CCC(=O)O)NC(=O)[C@H]([C@@H](C)O)NC(=O)[C@H](Cc2cn(C)c3ccccc23)NC(=O)[C@H](C(C)C)NC(=O)[C@H](Cc2cn(C)c3ccccc23)NC(=O)[C@H](Cc2ccccc2)N(C)C(=O)[C@H](CCCC(=O)O)NC1=O.[Lu+3] [PDC_EphA2-00001417-C304] ({CH2CO}-[dA][NMeF]NL[Aad][NMeF][Trp(1-Me)]V[Trp(1-Me)]TEC[βAla][dK]([PEG2-PEG8-DOTA])-NH2; thioether N-12) | 1 to 10
CC(C)C[C@@H]1NC(=O)[C@H](CC(N)=O)NC(=O)[C@H](Cc2cccnc2)N(C)C(=O)[C@@H](C)NC(=O)CSC[C@@H](C(=O)NCCC(=O)N[C@H](CCCCNC(=O)CCOCCOCCNC(=O)CCOCCOCCOCCOCCOCCOCCOCCOCCNC(=O)CN2CCN(CC(=O)O)CCN(CC(=O)O)CCN(CC(=O)O)CC2)C(N)=O)NC(=O)[C@H](CCCC(N)=O)NC(=O)[C@H]([C@@H](C)O)NC(=O)[C@H](Cc2cn(C)c3ccccc23)NC(=O)[C@H](CCCCNC(=O)N2CCN(CC(=O)O)CC2)NC(=O)[C@H](Cc2cn(C)c3ccccc23)NC(=O)[C@H](CCC(=O)O)N(C)C(=O)[C@H](CCCC(N)=O)NC1=O.[Lu+3] [PDC_EphA2-00007196-C304] ({CH2CO}-[dA][NMe3Pal]NL[Aad](NH2)[NMeE][Trp(1-Me)]K([CO-Piperazinyl(4-CH2COOH)])[Trp(1-Me)]T[Aad](NH2)C[βAla][dK]([PEG2-PEG8-DOTA])-NH2; thioether N-12) | < 1
CC(C)C[C@@H]1NC(=O)[C@H](CC(N)=O)NC(=O)[C@H](Cc2cccnc2)N(C)C(=O)[C@@H](C)NC(=O)CSC[C@@H](C(=O)NCCC(=O)N[C@H](CCCCNC(=O)CCOCCOCCNC(=O)CCOCCOCCOCCOCCOCCOCCOCCOCCNC(=O)CN2CCN(CC(=O)O)CCN(CC(=O)O)CCN(CC(=O)O)CC2)C(N)=O)NC(=O)[C@H](CCCC(N)=O)NC(=O)[C@H]([C@@H](C)O)NC(=O)[C@H](Cc2cn(C)c3ccccc23)NC(=O)[C@H](CCCCNC(=O)N2CCN(CC(=O)O)CC2)NC(=O)[C@H](Cc2cn(C)c3ccccc23)NC(=O)[C@H](Cc2ccccc2)N(C)C(=O)[C@H](CCCC(N)=O)NC1=O.[Lu+3] [PDC_EphA2-00008093-C304] ({CH2CO}-[dA][NMe3Pal]NL[Aad](NH2)[NMeF][Trp(1-Me)]K([CO-Piperazinyl(4-CH2COOH)])[Trp(1-Me)]T[Aad](NH2)C[βAla][dK]([PEG2-PEG8-DOTA])-NH2; thioether N-12) | < 1
CC(C)C[C@@H]1NC(=O)[C@H](CC(N)=O)NC(=O)[C@H](Cc2cccnc2)N(C)C(=O)[C@@H](C)NC(=O)CSC[C@@H](C(=O)NCCC(=O)N[C@H](CCCCNC(=O)CCOCCOCCNC(=O)CCOCCOCCOCCOCCOCCOCCOCCOCCNC(=O)CN2CCN(CC(=O)O)CCN(CC(=O)O)CCN(CC(=O)O)CC2)C(N)=O)NC(=O)[C@H](CCCC(N)=O)NC(=O)[C@H]([C@@H](C)O)NC(=O)[C@H](Cc2cn(C)c3ccccc23)NC(=O)[C@H](CCCCNC(=O)N2CCN(CC(=O)O)CC2)NC(=O)[C@H](Cc2cn(C)c3ccccc23)NC(=O)[C@H](CCC(=O)O)N(C)C(=O)[C@H](CCCC(=O)O)NC1=O.[Lu+3] [PDC_EphA2-00008094-C304] ({CH2CO}-[dA][NMe3Pal]NL[Aad][NMeE][Trp(1-Me)]K([CO-Piperazinyl(4-CH2COOH)])[Trp(1-Me)]T[Aad](NH2)C[βAla][dK]([PEG2-PEG8-DOTA])-NH2; thioether N-12) | < 1
C[C@H]1NC(=O)CSC[C@@H](C(=O)N[C@H](CCCCNC(=O)CN2CCN(CC(=O)O)CCN(CC(=O)O)CCN(CC(=O)O)CC2)C(N)=O)NC(=O)[C@H](CCCC(N)=O)NC(=O)[C@H]([C@@H](C)O)NC(=O)[C@H](Cc2cn(C)c3ccccc23)NC(=O)[C@H](CCC(=O)NC[C@H](O)[C@@H](O)[C@H](O)[C@H](O)CO)NC(=O)[C@H](Cc2cn(C)c3ccccc23)NC(=O)[C@H](CC(N)=O)N(C)C(=O)[C@H](CCCC(N)=O)NC(=O)[C@H](C2CCC2)NC(=O)[C@H](CC(N)=O)NC(=O)[C@H](Cc2ccccc2)N(C)C1=O.[Lu+3] [PDC_EphA2-00013703-C302] ({CH2CO}-[dA][NMeF]N[Gly(cBu)][Aad](NH2)[NMeN][Trp(1-Me)]E(NH(1-deoxy-D-glucityl))[Trp(1-Me)]T[Aad](NH2)C[dK](DOTA)-NH2; thioether N-12) | < 1
C[C@@H](O)[C@@H]1NC(=O)[C@H](Cc2cn(C)c3ccccc23)NC(=O)[C@H](CCC(=O)NC[C@H](O)[C@@H](O)[C@H](O)[C@H](O)CO)NC(=O)[C@H](Cc2cn(C)c3c(Cl)cccc23)NC(=O)[C@H](Cc2cccnc2)N(C)C(=O)[C@H](CCCC(N)=O)NC(=O)[C@H](C2CCC2)NC(=O)[C@H](CC(N)=O)NC(=O)[C@H](Cc2cccnc2)N(C)C(=O)[C@@H](Cc2cccc(C(N)=O)c2)NC(=O)CSC[C@@H](C(=O)N[C@H](CCCCNC(=O)CN2CCN(CC(=O)O)CCN(CC(=O)O)CCN(CC(=O)O)CC2)C(N)=O)NC(=O)[C@H](CCCC(N)=O)NC1=O.[Lu+3] [PDC_EphA2-00019437-C302] ({CH2CO}-[dPhe(3-CONH2)][NMe3Pal]N[Gly(cBu)][Aad](NH2)[NMe3Pal][Trp(1-Me,7-Cl)]E(NH(1-deoxy-D-glucityl))[Trp(1-Me)]T[Aad](NH2)C[dK](DOTA)-NH2; thioether N-12) | < 1

same assay, conditions: peptides, Biacore T200, 25 °C, Table B12; read-out: SPR Kd

Structure (SMILES) | Kd [nM]
CC(=O)NCCCC[C@@H](NC(=O)CCNC(=O)[C@@H]1CSCC(=O)N[C@H](C)C(=O)N(C)[C@@H](Cc2cccnc2)C(=O)N[C@@H](CC(N)=O)C(=O)N[C@@H](CC(C)C)C(=O)N[C@@H](CCCC(=O)O)C(=O)N(C)[C@@H](Cc2ccccc2)C(=O)N[C@@H](Cc2cn(C)c3ccccc23)C(=O)N[C@@H](C(C)C)C(=O)N[C@@H](Cc2cn(C)c3ccccc23)C(=O)N[C@@H]([C@@H](C)O)C(=O)N[C@@H](CCC(=O)O)C(=O)N1)C(N)=O [PDC_EphA2-00008083] ({CH2CO}-[dA][NMe3Pal]NL[Aad][NMeF][Trp(1-Me)]V[Trp(1-Me)]TEC[βAla][dK](Ac)-NH2; thioether N-12) | < 1
C[C@@H](O)[C@@H]1NC(=O)[C@H](Cc2cn(C)c3ccccc23)NC(=O)[C@H](CCCCNC(N)=O)NC(=O)[C@H](Cc2cn(C)c3c(Cl)cccc23)NC(=O)[C@H](CC(N)=O)N(C)C(=O)[C@H](CCCC(N)=O)NC(=O)[C@H](C2CCC2)NC(=O)[C@H](CC(N)=O)NC(=O)[C@H](Cc2ccccc2)N(C)C(=O)[C@@H](Cc2cccc(C(N)=O)c2)NC(=O)CSC[C@@H](C(N)=O)NC(=O)[C@H](CCCC(N)=O)NC1=O [PDC_EphA2-00019426] ({CH2CO}-[dPhe(3-CONH2)][NMeF]N[Gly(cBu)][Aad](NH2)[NMeN][Trp(1-Me,7-Cl)][hCit][Trp(1-Me)]T[Aad](NH2)C-NH2; thioether N-12) | < 1
